Assay [1] concerns the target T1, human cloned CHRM5 receptor (M5_CHO) (Homo sapiens, UniProt P08912).
T1 construct: expressed in transfected cells; host or cells: CHO (M5_CHO)
T1 sequence (P08912 1-532): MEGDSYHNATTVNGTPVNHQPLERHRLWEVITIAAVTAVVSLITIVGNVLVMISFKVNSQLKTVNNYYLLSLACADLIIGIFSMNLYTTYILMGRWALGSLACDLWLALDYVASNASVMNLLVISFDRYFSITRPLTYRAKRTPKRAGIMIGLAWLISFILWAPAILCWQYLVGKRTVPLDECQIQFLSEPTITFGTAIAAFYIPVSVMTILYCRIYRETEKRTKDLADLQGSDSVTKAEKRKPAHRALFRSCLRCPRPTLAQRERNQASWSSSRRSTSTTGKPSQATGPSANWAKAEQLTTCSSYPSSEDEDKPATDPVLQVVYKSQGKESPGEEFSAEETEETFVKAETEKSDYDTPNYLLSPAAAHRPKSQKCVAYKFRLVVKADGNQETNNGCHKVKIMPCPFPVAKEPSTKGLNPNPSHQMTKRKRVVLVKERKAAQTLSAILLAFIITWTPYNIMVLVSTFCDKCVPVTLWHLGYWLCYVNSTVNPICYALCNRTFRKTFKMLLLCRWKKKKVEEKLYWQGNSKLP
As to the kind of experiment: CHRM5 Ca++ Flux Assay (agonist mode, FDSS 7000EX). In kind it is cell-based. The following applies: for Emax: Percent Activity measured to EC100 of Carbachol, read-out: M5 FDSS PA; for EC50: agonist mode, geometric mean if tested more than once, read-out: M5 FDSS EC50. A digest of the protocol: (§1)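 Fluorescent intracellular Ca++ signal, recorded for 3 min, served as read-out for CHO-K1 cells stably carrying human M3 or M5 receptor. Triplicate 11-point dose responses were averaged and fitted to a four-parameter model, with percent activity referenced to the carbachol EC100.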

In assay [2] the target is T2, human cloned CHRM3 receptor (M3_CHO cells) (Homo sapiens, UniProt P20309).
T2 construct: expressed in transfected cells; host or cells: CHO-K1
As to the kind of experiment: CHRM3 Ca++ Flux Assay (agonist mode, FDSS 7000EX). In kind it is cell-based. The conditions noted are these: for Emax: Percent Activity measured to EC100 of Carbachol, read-out: M3 FDSS PA; for EC50: agonist mode, geometric mean if tested more than once, read-out: M3 FDSS EC50. A digest of the protocol: as §1

T2 sequence (P20309 whole entry): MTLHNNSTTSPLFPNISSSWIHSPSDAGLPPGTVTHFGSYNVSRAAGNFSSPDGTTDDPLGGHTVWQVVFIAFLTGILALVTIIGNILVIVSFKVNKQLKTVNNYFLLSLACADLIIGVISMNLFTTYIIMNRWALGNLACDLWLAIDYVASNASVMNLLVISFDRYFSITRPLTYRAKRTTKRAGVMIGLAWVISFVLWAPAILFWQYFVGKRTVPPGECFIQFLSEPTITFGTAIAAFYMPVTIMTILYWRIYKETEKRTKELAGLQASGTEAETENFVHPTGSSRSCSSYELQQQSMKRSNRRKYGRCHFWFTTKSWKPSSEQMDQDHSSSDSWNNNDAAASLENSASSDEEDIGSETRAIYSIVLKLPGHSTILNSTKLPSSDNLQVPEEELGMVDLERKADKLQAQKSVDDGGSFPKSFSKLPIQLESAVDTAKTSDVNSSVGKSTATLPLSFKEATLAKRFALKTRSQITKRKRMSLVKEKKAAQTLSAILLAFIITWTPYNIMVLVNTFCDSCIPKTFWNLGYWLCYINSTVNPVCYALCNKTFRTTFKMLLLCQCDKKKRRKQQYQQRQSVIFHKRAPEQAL

Broadly, the EC50 is the concentration needed to bring the measured effect to its halfway point. For the compound `Fc1ccc(C2CCOC2)c(C2CCN([C@@H]3CCC4(C3)CN(c3nnco3)C4)CC2)c1` (mixture of isomers) [Example 2J, 2-((6R)-6-(4-(5-fluoro-2-(tetrahydrofuran-3-yl)phenyl)piperidin-1-yl)-2-azaspiro[3.4]octan-2-yl)-1,3,4-oxadiazole], in assay [1], the Emax is 0% and the EC50 was > 25 µM. In assay [2], the Emax is 0% and the EC50 is > 25 µM.

`O=C(C1COC1)N1CC2(CC[C@H](N3CCC(c4ccccc4OC(F)(F)F)CC3)C2)C1` (single isomer, unassigned) [Example 8G]: in assay [1], the Emax was 0% and the EC50 is > 25 µM. For the same compound, in assay [2], the Emax came to 0% and the concentration giving a half-maximal response (EC50) is > 25 µM.

Regarding `O=C(N1CC2(CC[C@H](N3CCC(c4ccccc4C4CCOCC4)CC3)C2)C1)C1(F)CC1` (single isomer, unassigned) [Example 9M], in assay [1], the Emax turned out to be 0% and the 50% effective concentration (EC50) was > 25 µM. For the same compound, in assay [2], the Emax was determined as 0% and the EC50 was > 25 µM.

`c1ccc(C2CCN([C@H]3CCC4(C3)CN(c3nnco3)C4)CC2)c(C2CCOCC2)c1` (single isomer, unassigned) [Example 10T]: in assay [1], the Emax amounted to 0% and the concentration giving a half-maximal response (EC50) was > 25 µM. Moreover, in assay [2], the Emax was 0% and the concentration for a half-maximal effect (EC50) was > 25 µM.

Take `c1ccc(C2CCN([C@@H]3CCC4(C3)CN(c3nnco3)C4)CC2)c(OC2CC3(COC3)C2)c1` [Example 1A, (R)-2-(6-(4-(2-((2-oxaspiro[3.3]heptan-6-yl)oxy)phenyl)piperidin-1-yl)-2-azaspiro[3.4]octan-2-yl)-1,3,4-oxadiazole]: in assay [1], the Emax was found to be 0% and the concentration for a half-maximal effect (EC50) was > 25 µM. Besides, in assay [2], the Emax turned out to be 0% and the EC50 is > 25 µM.

Regarding `c1ccc(C2CCN([C@@H]3CCC4(C3)CN(c3nnco3)C4)CC2)c(OC2COC2)c1` [Example 1D, (R)-2-(6-(4-(2-(oxetan-3-yloxy)phenyl)piperidin-1-yl)-2-azaspiro[3.4]octan-2-yl)-1,3,4-oxadiazole], in assay [1], the Emax stood at 0% and the concentration giving a half-maximal response (EC50) worked out at 4.39 µM. Also, in assay [2], the Emax worked out at 0% and the EC50 is > 25 µM.

For the compound `c1ccc(C2CCN([C@@H]3CCC4(C3)CN(c3nnco3)C4)CC2)c(OC[C@@H]2COCCO2)c1` [Example 1E, 2-((R)-6-(4-(2-(((S)-1,4-dioxan-2-yl)methoxy)phenyl)piperidin-1-yl)-2-azaspiro[3.4]octan-2-yl)-1,3,4-oxadiazole], in assay [1], the Emax turned out to be 0% and the EC50 is > 25 µM. Further, in assay [2], the Emax came to 0% and the EC50 is > 25 µM.

As for `CC(C)(O)CCOc1ccccc1C1CCN([C@@H]2CCC3(C2)CN(c2nnco2)C3)CC1` [Example 1F], the Emax in assay [1] and in assay [2] was 0% each time. The EC50 in assay [1] and in assay [2] was > 25 µM each time.

Turning to `c1ccc(C2CCN([C@@H]3CCC4(C3)CN(c3nncs3)C4)CC2)c(OCC2COC2)c1` [Example 1G, (R)-2-(6-(4-(2-(oxetan-3-ylmethoxy)phenyl)piperidin-1-yl)-2-azaspiro[3.4]octan-2-yl)-1,3,4-thiadiazole], in assay [1], the Emax was determined as 0% and the EC50 was > 25 µM. In assay [2], the Emax was determined as 0% and the EC50 was > 25 µM.

For the compound `FC1(COc2ccccc2C2CCN([C@@H]3CCC4(C3)CN(c3nncs3)C4)CC2)COC1` [Example 1H, (R)-2-(6-(4-(2-((3-fluorooxetan-3-yl)methoxy)phenyl)piperidin-1-yl)-2-azaspiro[3.4]octan-2-yl)-1,3,4-thiadiazole], in assay [1], the Emax came out at 10% and the EC50 amounted to 2.02 µM. In addition, in assay [2], the Emax turned out to be 0% and the EC50 is > 25 µM.

On to `c1ccc(C2CCN([C@@H]3CCC4(C3)CN(c3nncs3)C4)CC2)c(OCC2CCOCC2)c1` [Example 1I, (R)-2-(6-(4-(2-((tetrahydro-2H-pyran-4-yl)methoxy)phenyl)piperidin-1-yl)-2-azaspiro[3.4]octan-2-yl)-1,3,4-thiadiazole], for which the Emax in assay [1] and in assay [2] was 0% throughout. Moreover, the EC50 in assay [1] and in assay [2] was > 25 µM throughout.

For the compound `FC1(COc2ccccc2C2CCN([C@@H]3CCC4(C3)CN(c3nncs3)C4)CC2)CCOCC1` [Example 1J, (R)-2-(6-(4-(2-((4-fluorotetrahydro-2H-pyran-4-yl)methoxy)phenyl)piperidin-1-yl)-2-azaspiro[3.4]octan-2-yl)-1,3,4-thiadiazole], the Emax in assay [1] and in assay [2] was 0% in each case. The 50% effective concentration (EC50) in assay [1] and in assay [2] was > 25 µM throughout.

Regarding `c1ccc(C2CCN([C@@H]3CCC4(C3)CN(c3cncnc3)C4)CC2)c(OC2COC2)c1` [Example 1K, (R)-6-(4-(2-(oxetan-3-yloxy)phenyl)piperidin-1-yl)-2-(pyrimidin-5-yl)-2-azaspiro[3.4]octane], in assay [1], the Emax amounted to 0% and the 50% effective concentration (EC50) was > 25 µM. In addition, in assay [2], the Emax was 0% and the half-maximal effective concentration (EC50) was > 25 µM.

Turning to `c1ccc(C2CCN([C@@H]3CCC4(C3)CN(c3cncnc3)C4)CC2)c(OC2CCOCC2)c1` [Example 1L, (R)-2-(pyrimidin-5-yl)-6-(4-(2-((tetrahydro-2H-pyran-4-yl)oxy)phenyl)piperidin-1-yl)-2-azaspiro[3.4]octane], in assay [1], the Emax is 0% and the EC50 is > 25 µM. In assay [2], the Emax was determined as 0% and the 50% effective concentration (EC50) was > 25 µM.

With `c1ccc(C2CCN([C@@H]3CCC4(C3)CN(c3cncnc3)C4)CC2)c(OCC2CCOCC2)c1` [Example 1M, (R)-2-(pyrimidin-5-yl)-6-(4-(2-((tetrahydro-2H-pyran-4-yl)methoxy)phenyl)piperidin-1-yl)-2-azaspiro[3.4]octane], in assay [1], the Emax amounted to 0% and the EC50 is > 25 µM. Besides, in assay [2], the Emax was 0% and the half-maximal effective concentration (EC50) is > 25 µM.

Turning to `c1ccc(C2CCN([C@@H]3CCC4(C3)CN(c3cncnc3)C4)CC2)c(OCC2COC2)c1` [Example 1N, (R)-6-(4-(2-(oxetan-3-ylmethoxy)phenyl)piperidin-1-yl)-2-(pyrimidin-5-yl)-2-azaspiro[3.4]octane], in assay [1], the Emax came out at 0% and the EC50 was > 25 µM. For the same compound, in assay [2], the Emax came out at 0% and the EC50 was > 25 µM.

In the case of `c1ccc(C2CCN([C@@H]3CCC4(C3)CN(c3cncnc3)C4)CC2)c(OC2CC3(COC3)C2)c1` [Example 1O, (R)-6-(4-(2-((2-oxaspiro[3.3]heptan-6-yl)oxy)phenyl)piperidin-1-yl)-2-(pyrimidin-5-yl)-2-azaspiro[3.4]octane], in assay [1], the Emax stood at 0% and the EC50 was > 25 µM. Also, in assay [2], the Emax was 0% and the EC50 was > 25 µM.

Consider `c1ccc(C2CCN([C@@H]3CCC4(C3)CN(c3cncnc3)C4)CC2)c(O[C@@H]2CCOC2)c1` [Example 1P, (R)-2-(pyrimidin-5-yl)-6-(4-(2-(((R)-tetrahydrofuran-3-yl)oxy)phenyl)piperidin-1-yl)-2-azaspiro[3.4]octane], for which, in assay [1], the Emax was determined as 0% and the 50% effective concentration (EC50) was > 25 µM. In assay [2], the Emax is 0% and the EC50 was > 25 µM.

Turning to `CC(C)(O)COc1ccccc1C1CCN([C@@H]2CCC3(C2)CN(c2nnco2)C3)CC1` [Example 2A, (R)-1-(2-(1-(2-(1,3,4-oxadiazol-2-yl)-2-azaspiro[3.4]octan-6-yl)piperidin-4-yl)phenoxy)-2-methylpropan-2-ol], in assay [1], the Emax worked out at 0% and the EC50 was > 25 µM. In assay [2], the Emax stood at 0% and the concentration giving a half-maximal response (EC50) was > 25 µM.

`c1ccc(C2CCN([C@@H]3CCC4(C3)CN(c3nnco3)C4)CC2)c(O[C@@H]2CCOC2)c1` [Example 2B, 2-((R)-6-(4-(2-(((R)-tetrahydrofuran-3-yl)oxy)phenyl)piperidin-1-yl)-2-azaspiro[3.4]octan-2-yl)-1,3,4-oxadiazole]: in assay [1], the Emax was 0% and the EC50 was > 25 µM. Also, in assay [2], the Emax stood at 0% and the 50% effective concentration (EC50) is > 25 µM.

As to `COCCOc1ccccc1C1CCN([C@@H]2CCC3(C2)CN(c2nnco2)C3)CC1` [Example 2C], the Emax in assay [1] and in assay [2] was 0% each time. Besides, the EC50 in assay [1] and in assay [2] was > 25 µM each time.

As for `FC1(COc2ccccc2C2CCN([C@@H]3CCC4(C3)CN(c3nnco3)C4)CC2)CCOCC1` [Example 2D, (R)-2-(6-(4-(2-((4-fluorotetrahydro-2H-pyran-4-yl)methoxy)phenyl)piperidin-1-yl)-2-azaspiro[3.4]octan-2-yl)-1,3,4-oxadiazole], in assay [1], the Emax is 0% and the half-maximal effective concentration (EC50) is > 25 µM. In assay [2], the Emax was found to be 0% and the EC50 was > 25 µM.
